Patent publication EP1400530A1, “Suppression of immune response via inhibition of cathepsin S” (MASSACHUSETTS INSTITUTE OF TECHNOLOGY, priority 1996, dated 1997)

What was measured:
[1] = system: HOM2 cells; test: 35S-methionine/cysteine pulse/chase of HOM2 cells, immunoprecipitation of class II with Tu36, SDS-PAGE (Ii processing and SDS-stable peptide-loaded αβ dimers)
[2] = system: cathepsin D; test: Inhibition of cathepsin D activity in human monocytes; type: cell-based
[3] = target: cathepsin D (Homo sapiens, UniProt P07339); conditions: Alteri et al. 1993; cited from earlier work
[4] = target: cathepsin S (Homo sapiens, UniProt P25774); test: Active site labeling of cysteine proteases with Cbz-[125I]-Tyr-Ala-CN2 in HOM2 cells after preincubation with inhibitor; conditions: LHVS concentration of 1 nM, 37°C 1 hour prior to labeling
[5] = system: Peripheral blood mononuclear cells (PBMC's); type: cell-based, human; conditions: 3-5 days
[6] = target: cathepsin B (Homo sapiens, UniProt P07858); test: Active site labeling of cysteine proteases with Cbz-[125I]-Tyr-Ala-CN2 in HOM2 cells after preincubation with inhibitor; conditions: inhibitor concentration of 5 nM
[7] = target: T1, cathepsin H (Homo sapiens, UniProt P09668); test: Inhibition of purified human cathepsin H; type: biochemical; conditions: concentration not given
T1 sequence (P09668 98-335): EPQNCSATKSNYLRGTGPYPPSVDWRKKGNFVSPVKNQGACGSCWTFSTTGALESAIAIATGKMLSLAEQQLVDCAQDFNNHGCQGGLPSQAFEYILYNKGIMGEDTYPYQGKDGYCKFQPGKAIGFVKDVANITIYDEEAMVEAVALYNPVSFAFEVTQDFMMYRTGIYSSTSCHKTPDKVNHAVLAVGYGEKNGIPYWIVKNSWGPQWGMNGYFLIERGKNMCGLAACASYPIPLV

cathepsin D (Homo sapiens, UniProt P07339), sequence (P07339 65-412): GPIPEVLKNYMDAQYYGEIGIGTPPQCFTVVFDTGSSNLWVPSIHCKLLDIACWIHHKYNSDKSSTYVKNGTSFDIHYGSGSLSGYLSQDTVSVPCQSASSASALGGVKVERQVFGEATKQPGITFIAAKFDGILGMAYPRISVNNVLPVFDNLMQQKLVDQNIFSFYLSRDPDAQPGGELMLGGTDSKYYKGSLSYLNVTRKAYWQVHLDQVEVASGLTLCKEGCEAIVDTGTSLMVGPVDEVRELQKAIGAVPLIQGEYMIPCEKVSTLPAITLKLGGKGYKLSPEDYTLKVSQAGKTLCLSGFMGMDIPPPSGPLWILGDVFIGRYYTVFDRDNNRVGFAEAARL
cathepsin S, sequence (P25774 115-331): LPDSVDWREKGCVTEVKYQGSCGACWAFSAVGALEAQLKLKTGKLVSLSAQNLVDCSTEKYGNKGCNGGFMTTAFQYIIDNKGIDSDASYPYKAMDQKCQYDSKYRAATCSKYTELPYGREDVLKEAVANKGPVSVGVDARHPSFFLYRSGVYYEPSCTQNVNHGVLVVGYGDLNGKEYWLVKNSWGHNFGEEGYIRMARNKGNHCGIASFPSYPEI

For `CC(C)[C@H](NC(=O)[C@H](Cc1ccccc1)C[C@H](O)[C@H](Cc1ccccc1)NC(=O)OC(C)(C)C)C(=O)N[C@@H](Cc1ccccc1)C(=O)N1CCOCC1` [CGP 53437], the SDS-stable complexes ([1]; 5 µM or 50 µM CGP 53437, chase 5 hours) was “nor did it produce a decrease”, the “inhibits cathepsin D activity in human monocytes” value ([2]; 5 µM) was 75% and the “inhibits cathepsin D activity in human monocytes” value ([2]; 50 µM) was 90%. The “inhibits cathepsin D” value [3] was “nanomolar range”.
For `CCOC(=O)[C@H]1O[C@@H]1C(=O)N[C@@H](CC(C)C)C(=O)NCCC(C)C` (relative stereo) [E64D], the SDS-stable dimer formation ([1]; E64D, concentration not stated in Example 2) was “decrease”.
With `CC(C)C[C@H](NC(=O)N1CCOCC1)C(=O)N[C@H](/C=C/S(=O)(=O)c1ccccc1)CCc1ccccc1` [LHVS, morpholinurea-leucine-homophenylalanine-vinylsulfone phenyl] the “labeling of cathepsin S” value [4] was “effectively inhibited”, the “attenuation of 3H-thymidine uptake response to tetanus toxoid” value [5] was “approximately 60%” and the “formation of SDS-stable complexes (peptide loading)” value ([1]; 1 nM and 5 nM LHVS, chase 5 hours) was “marked decrease”. For the same molecule, the “labeling of cathepsin B” value [6] was “decreased, although some activity remained” and the “inhibition of purified human cathepsin H” value [7] was “not inhibited”.
